This is an account of results in PubChem BioAssay (NCI).

Among the test systems are CCRF-CEM leukemia; HCC-2998 colon; LOX IMVI melanoma; MALME-3M melanoma; NCI-H226 lung; OVCAR-4 ovarian; OVCAR-5 ovarian; SF-539 CNS; UACC-62 melanoma; UO-31 renal.
Assay in all cases: growth of human tumour cells (NCI), 48 h

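How tested: cells in 96-well plates exposed to compound for 48 hours at five concentrations. The concentration for 50% growth inhibition is given as GI50. TGI denotes the concentration required for complete inhibition of growth.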

For the compound `Oc1c(-c2cc(C(F)(F)F)[nH]n2)cc(Cl)c(OCc2ccc(Cl)cc2)c1-c1ccc(Cl)c(C(F)(F)F)c1`, the GI50 in the assay on CCRF-CEM leukemia was 0.192 µM; with HCC-2998 colon it was 0.739 µM; in the assay with LOX IMVI melanoma it was 0.967 µM; in the assay on MALME-3M melanoma it was 0.789 µM; in the assay on NCI-H226 lung it was 0.917 µM; with OVCAR-4 ovarian it was 1.31 µM. In addition, the GI50 with OVCAR-5 ovarian was 2.01 µM; with SF-539 CNS, 0.749 µM; in the assay on UACC-62 melanoma, 0.355 µM; with UO-31 renal, 0.818 µM. Besides, the TGI with CCRF-CEM leukemia was determined as 4.77 µM; with HCC-2998 colon, 4.53 µM; in the assay with LOX IMVI melanoma it was 2.9 µM; in the assay on MALME-3M melanoma, 2.19 µM; with NCI-H226 lung, 2.68 µM; in the assay on OVCAR-4 ovarian, 7.41 µM. The TGI came out at 7.91 µM with OVCAR-5 ovarian, 2.72 µM with SF-539 CNS, 1.42 µM in the assay on UACC-62 melanoma and 2.21 µM with UO-31 renal.
Take `Nc1n[nH]c2ccc([C@@H]3Nc4cc5c(cc4[C@H]4C6CCC(C6)[C@@H]34)C(=O)NC5)cc12` (some centres undefined): the GI50 was 0.323 µM with CCRF-CEM leukemia; 0.362 µM with HCC-2998 colon; 0.291 µM in the assay with LOX IMVI melanoma; 0.718 µM in the assay with MALME-3M melanoma; 0.461 µM in the assay with NCI-H226 lung; 1.37 µM in the assay with OVCAR-4 ovarian. Also, the GI50 was 1.06 µM in the assay on OVCAR-5 ovarian, 0.258 µM in the assay on SF-539 CNS and 0.408 µM in the assay with UACC-62 melanoma. The TGI in the assay with CCRF-CEM leukemia was more than 100 µM; with HCC-2998 colon, more than 41.5 µM; in the assay with LOX IMVI melanoma, more than 100 µM; with MALME-3M melanoma, more than 100 µM; with NCI-H226 lung it was more than 20.9 µM; with OVCAR-4 ovarian, more than 100 µM. Also, the TGI was more than 100 µM with OVCAR-5 ovarian, 0.814 µM in the assay with SF-539 CNS, more than 100 µM with UACC-62 melanoma and more than 100 µM in the assay with UO-31 renal.
Regarding `Oc1cccc2c1NCCC2`, the GI50 was 0.219 µM in the assay on CCRF-CEM leukemia; 3.67 µM with HCC-2998 colon; 0.119 µM in the assay with LOX IMVI melanoma; 0.135 µM with MALME-3M melanoma; 3.07 µM in the assay with NCI-H226 lung; 1.65 µM in the assay with OVCAR-4 ovarian. The GI50 in the assay on OVCAR-5 ovarian was 4.35 µM; in the assay on SF-539 CNS, 0.14 µM; in the assay with UACC-62 melanoma, 0.144 µM; in the assay on UO-31 renal, 0.075 µM. Besides, the TGI with CCRF-CEM leukemia was more than 100 µM; in the assay with HCC-2998 colon, more than 89.7 µM; in the assay with LOX IMVI melanoma it was more than 36.7 µM; in the assay on MALME-3M melanoma, 98.9 µM; in the assay on NCI-H226 lung it was 35.2 µM; in the assay on OVCAR-4 ovarian it was more than 100 µM. The TGI with OVCAR-5 ovarian is more than 100 µM; in the assay with SF-539 CNS it was more than 47.3 µM; in the assay on UACC-62 melanoma, 4.51 µM; in the assay with UO-31 renal it was 13.5 µM.
